Measurements published in PubChem BioAssay (NCI).
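Values below derive from 48-hour exposures of cells grown in 96-well plates, with endpoints linearly interpolated between the two concentrations bracketing the appropriate inhibition level. GI50 = concentration required for 50% inhibition of growth. TGI: total growth inhibition.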

Columns and labels:
Assay in all cases: DTP human tumour cell line panel, 48 h
786-0 renal = test system: 786-0 renal
A498 renal = test system: A498 renal
A549 NSCLC = test system: A549 NSCLC
ACHN renal = test system: ACHN renal
BT-549 breast = test system: BT-549 breast
CCRF-CEM leukemia = test system: CCRF-CEM leukemia
COLO 205 colon = test system: COLO 205 colon
DU-145 prostate = test system: DU-145 prostate
EKVX NSCLC = test system: EKVX NSCLC
HCC-2998 colon = test system: HCC-2998 colon
HCT-15 colon = test system: HCT-15 colon
HL-60(TB) leukemia = test system: HL-60(TB) leukemia
HOP-62 NSCLC = test system: HOP-62 NSCLC
HOP-92 NSCLC = test system: HOP-92 NSCLC
HS 578T breast = test system: HS 578T breast
HT29 colon = test system: HT29 colon
IGROV1 ovarian = test system: IGROV1 ovarian
K-562 leukemia = test system: K-562 leukemia
KM12 colon = test system: KM12 colon
LOX IMVI melanoma = test system: LOX IMVI melanoma
M14 melanoma = test system: M14 melanoma
MALME-3M melanoma = test system: MALME-3M melanoma
MDA-MB-231 breast = test system: MDA-MB-231 breast
MDA-MB-435 = test system: MDA-MB-435
MOLT-4 leukemia = test system: MOLT-4 leukemia
NCI-H226 lung = test system: NCI-H226 lung
NCI-H23 lung = test system: NCI-H23 lung
NCI-H460 lung = test system: NCI-H460 lung
NCI-H522 lung = test system: NCI-H522 lung
NCI/ADR-RES ovarian = test system: NCI/ADR-RES ovarian
OVCAR-3 ovarian = test system: OVCAR-3 ovarian
OVCAR-4 ovarian = test system: OVCAR-4 ovarian
OVCAR-5 ovarian = test system: OVCAR-5 ovarian
OVCAR-8 ovarian = test system: OVCAR-8 ovarian
PC-3 prostate = test system: PC-3 prostate
RPMI-8226 leukemia = test system: RPMI-8226 leukemia
RXF 393 renal = test system: RXF 393 renal
SF-268 CNS = test system: SF-268 CNS
SF-295 CNS = test system: SF-295 CNS
SF-539 CNS = test system: SF-539 CNS
SK-MEL-2 melanoma = test system: SK-MEL-2 melanoma
SK-MEL-28 melanoma = test system: SK-MEL-28 melanoma
SK-MEL-5 melanoma = test system: SK-MEL-5 melanoma
SK-OV-3 ovarian = test system: SK-OV-3 ovarian
SN12C renal = test system: SN12C renal
SNB-19 CNS = test system: SNB-19 CNS
SNB-75 CNS = test system: SNB-75 CNS
SR leukemia = test system: SR leukemia
SW-620 colon = test system: SW-620 colon
T-47D breast = test system: T-47D breast
TK-10 renal = test system: TK-10 renal
U251 CNS = test system: U251 CNS
UACC-257 melanoma = test system: UACC-257 melanoma
UACC-62 melanoma = test system: UACC-62 melanoma
UO-31 renal = test system: UO-31 renal

With C=C1C(=O)O[C@H]2[C@H]1CC/C(COC(=O)CCCCCCC(=O)OC/C1=C/CC[C@@]3(C)O[C@H]3[C@H]3OC(=O)C(=C)[C@@H]3CC1)=C\CC[C@@]1(C)O[C@@H]21 the GI50 (786-0 renal) was 1.84 µM, the TGI (786-0 renal) was 3.87 µM and the GI50 (A498 renal) was 15.3 µM. It also gave a TGI (A498 renal) of 30.5 µM, a GI50 (A549 NSCLC) of 16.9 µM and a TGI (A549 NSCLC) of 45 µM. For the same compound, the GI50 (ACHN renal) was 2.56 µM, the TGI (ACHN renal) was 8.98 µM and the GI50 (BT-549 breast) was 1.81 µM. For the same compound, the TGI (BT-549 breast) was 4.33 µM, the GI50 (CCRF-CEM leukemia) was 1.11 µM and the TGI (CCRF-CEM leukemia) was 5.89 µM. It also gave a GI50 (COLO 205 colon) of 2 µM, a TGI (COLO 205 colon) of 4.26 µM and a GI50 (DU-145 prostate) of 5.59 µM. It also gave a TGI (DU-145 prostate) of 17.7 µM, a GI50 (EKVX NSCLC) of 3.66 µM and a TGI (EKVX NSCLC) of 16.1 µM. For the same compound, the GI50 (HCC-2998 colon) was 3.76 µM, the TGI (HCC-2998 colon) was 12.5 µM and the GI50 (HCT-15 colon) was 2.63 µM. For the same compound, the TGI (HCT-15 colon) was 10.1 µM, the GI50 (HL-60(TB) leukemia) was 1.5 µM and the TGI (HL-60(TB) leukemia) was 4.23 µM. The GI50 (HOP-62 NSCLC) was 6.69 µM, the TGI (HOP-62 NSCLC) was 22.9 µM and the GI50 (HOP-92 NSCLC) was 2.24 µM. It also gave a TGI (HOP-92 NSCLC) of 8.14 µM, a GI50 (HS 578T breast) of 2.3 µM and a TGI (HS 578T breast) of 8.7 µM. The GI50 (HT29 colon) was 2.41 µM, the TGI (HT29 colon) was 4.9 µM and the GI50 (IGROV1 ovarian) was 2.91 µM. For the same compound, the TGI (IGROV1 ovarian) was 10.5 µM, the GI50 (K-562 leukemia) was 2.73 µM and the TGI (K-562 leukemia) was 11.1 µM. It also gave a GI50 (KM12 colon) of 3.84 µM, a TGI (KM12 colon) of 16.9 µM and a GI50 (LOX IMVI melanoma) of 1.58 µM. The TGI (LOX IMVI melanoma) was 3.12 µM, the GI50 (M14 melanoma) was 2.48 µM and the TGI (M14 melanoma) was 8.55 µM. For the same compound, the GI50 (MALME-3M melanoma) was 2.55 µM, the TGI (MALME-3M melanoma) was 7.05 µM and the GI50 (MDA-MB-231 breast) was 2.28 µM. For the same compound, the TGI (MDA-MB-231 breast) was 5.94 µM, the GI50 (MDA-MB-435) was 3.33 µM and the TGI (MDA-MB-435) was 14.2 µM. The GI50 (MOLT-4 leukemia) was 2.4 µM, the TGI (MOLT-4 leukemia) was 9.93 µM and the GI50 (NCI-H226 lung) was 2.39 µM. For the same compound, the TGI (NCI-H226 lung) was 6.65 µM, the GI50 (NCI-H23 lung) was 2.94 µM and the TGI (NCI-H23 lung) was 12.6 µM. It also gave a GI50 (NCI-H460 lung) of 5.36 µM, a TGI (NCI-H460 lung) of 23.9 µM and a GI50 (NCI-H522 lung) of 1.92 µM. For the same compound, the TGI (NCI-H522 lung) was 3.45 µM, the GI50 (NCI/ADR-RES ovarian) was 4.26 µM and the TGI (NCI/ADR-RES ovarian) was 29.6 µM. The GI50 (OVCAR-3 ovarian) was 2.55 µM, the TGI (OVCAR-3 ovarian) was 10 µM and the GI50 (OVCAR-4 ovarian) was 3.23 µM. The TGI (OVCAR-4 ovarian) was 13.8 µM, the GI50 (OVCAR-5 ovarian) was 2.54 µM and the TGI (OVCAR-5 ovarian) was 7.5 µM. The GI50 (OVCAR-8 ovarian) was 3 µM, the TGI (OVCAR-8 ovarian) was 10.3 µM and the GI50 (PC-3 prostate) was 2.74 µM. The TGI (PC-3 prostate) was 7.98 µM, the GI50 (RPMI-8226 leukemia) was 2.27 µM and the TGI (RPMI-8226 leukemia) was 6.42 µM. For the same compound, the GI50 (RXF 393 renal) was 1.61 µM, the TGI (RXF 393 renal) was 3.33 µM and the GI50 (SF-268 CNS) was 3.51 µM. It also gave a TGI (SF-268 CNS) of 14.3 µM, a GI50 (SF-295 CNS) of 10.8 µM and a TGI (SF-295 CNS) of 24.7 µM. The GI50 (SF-539 CNS) was 2.52 µM, the TGI (SF-539 CNS) was 7 µM and the GI50 (SK-MEL-2 melanoma) was 12.6 µM. The TGI (SK-MEL-2 melanoma) was 29.7 µM, the GI50 (SK-MEL-28 melanoma) was 2.95 µM and the TGI (SK-MEL-28 melanoma) was 10.2 µM. It also gave a GI50 (SK-MEL-5 melanoma) of 4.83 µM, a TGI (SK-MEL-5 melanoma) of 16.6 µM and a GI50 (SK-OV-3 ovarian) of 35.9 µM. For the same compound, the TGI (SK-OV-3 ovarian) was greater than 100 µM, the GI50 (SN12C renal) was 2.9 µM and the TGI (SN12C renal) was 11.2 µM. For the same compound, the GI50 (SNB-19 CNS) was 7.17 µM, the TGI (SNB-19 CNS) was 24.1 µM and the GI50 (SNB-75 CNS) was 12.9 µM. It also gave a TGI (SNB-75 CNS) of 36.6 µM, a GI50 (SR leukemia) of 1.51 µM and a TGI (SR leukemia) of 9.88 µM. For the same compound, the GI50 (SW-620 colon) was 2.18 µM, the TGI (SW-620 colon) was 6.24 µM and the GI50 (T-47D breast) was 3.48 µM. It also gave a TGI (T-47D breast) of 10.8 µM, a GI50 (TK-10 renal) of 3.46 µM and a TGI (TK-10 renal) of 9.42 µM. For the same compound, the GI50 (U251 CNS) was 2.96 µM, the TGI (U251 CNS) was 10.3 µM and the GI50 (UACC-257 melanoma) was 2.1 µM. It also gave a TGI (UACC-257 melanoma) of 6.22 µM, a GI50 (UACC-62 melanoma) of 5.47 µM and a TGI (UACC-62 melanoma) of 20.2 µM. For the same compound, the GI50 (UO-31 renal) was 1.58 µM and the TGI (UO-31 renal) was 4.37 µM.
